In patent US20090182058A1, “Novel Chalcone Derivatives With Antimitotic Activity” (priority 2006, published 2009):

Key:
[1] = system: K562 cells; experiment: Cycle test: blocking in the G2/M phase evaluated by flow cytometry; assay type: cell-based, human; conditions: for G2/M inhibition in %: 24 hours, 10 μM, cells blocked in G2/M phase; for G2/M cycle blocking, dose-response (FIG. 1): concentration of the order of one micromolar
Description: THE CYCLE TEST CORRESPONDS TO THE ANALYSIS OF THE BLOCKING IN THE G2/M PHASE OF A LINE OF HUMAN LEUKEMIC CELLS AS EVALUATED BY FLOW CYTOMETRY.
The k562 cells are incubated for 24 hours in the absence or in the presence of compounds according to the invention and/or reference compounds such as vincristine. In a first phase, the compounds are used at a concentration of 10 μM, whereby dose-response type studies may be carried out secondarily. After 24 hours the cells are exposed to propidium iodide, a DNA intercalating agent, and analyzed in flow cytometry. The results are expressed as a percentage of the cells blocked in the G2/M phase of the cell cycle.

[2] = system: RL; experiment: MTT test (in vitro cytotoxicity); assay type: cell-based; conditions: Homo sapiens, 72 hours
Description: (§1) The MMT test is a metabolic test used for evaluating the inhibition of proliferation of tumoral lines by a compound according to the invention. Several representative tumoral lines of different tumoral types such as breast cancer, colon cancer, otorhinolaryngological tumors, lung cancer, are incubated in a 96-well plate at variable concentrations of a compound according to the invention, for 72 hours and MTT is then added for a period of 1 hour. The MTT is a substrate of mitochondrial enzymes which is degraded in insoluble formazan blue. The crystals are then re-solubilized in isopropanol-HCl 0.1N and the plates are analyzed on an ELISA plate reader. Relative survival is calculated relatively to cells which have not been exposed to the compound according to the invention. The IC50 or inhibiting concentration 50 is the concentration value of the investigated compound according to the invention which induces a 50% reduction of proliferation relatively to the control.

[3] = system: HCT 116; experiment: MTT test (in vitro cytotoxicity); assay type: cell-based; conditions: Homo sapiens, 72 hours
Description: as §1

[4] = system: L1210; experiment: MTT test (in vitro cytotoxicity); assay type: cell-based; conditions: Mus musculus, 72 hours
Description: as §1

[5] = system: N2A; experiment: MTT test (in vitro cytotoxicity); assay type: cell-based; conditions: Mus musculus, 72 hours
Description: as §1

[6] = system: K562; experiment: MTT test (in vitro cytotoxicity); assay type: cell-based; conditions: Homo sapiens, 72 hours
Description: as §1

[7] = system: Messa; experiment: MTT test (in vitro cytotoxicity); assay type: cell-based; conditions: Homo sapiens, MES-SA, 72 hours
Description: as §1

[8] = system: NIH 3T3; experiment: MTT test (in vitro cytotoxicity); assay type: cell-based; conditions: Mus musculus, NIH3T3, 72 hours
Description: as §1

[9] = system: HNO 150; experiment: MTT test (in vitro cytotoxicity); assay type: cell-based; conditions: 72 hours
Description: as §1

[10] = system: CEM; experiment: MTT test (in vitro cytotoxicity); assay type: cell-based; conditions: Homo sapiens, CCRF-CEM, 72 hours
Description: as §1

[11] = system: MCF7; experiment: MTT test (in vitro cytotoxicity); assay type: cell-based; conditions: Homo sapiens, 72 hours
Description: as §1

[12] = system: SW48; experiment: MTT test (in vitro cytotoxicity); assay type: cell-based; conditions: Homo sapiens, 72 hours
Description: as §1

For COc1cccc(OC)c1/C=C/C(=O)c1c(OC)cccc1OC [Compound A, reference compound], the “G2/M inhibition in %” value [1] was 78%, the “G2/M cycle blocking, dose-response (FIG. 1)” value (shortened to “G2/M cycle blocking”) [1] was “no activity” and the IC50 [2] was 40 µM. It also gave an IC50 [3] of 9 µM, an IC50 [4] of 34 µM and an IC50 [5] of 55 µM. The IC50 [6] was 80 µM, the IC50 [7] was 10 µM and the IC50 [8] was 60 µM. It also gave an IC50 [9] of 62 µM, an IC50 [10] of 6 µM and an IC50 [11] of 75 µM. It also gave an IC50 [12] of 10 µM.

In the case of COc1cc(OC)c(/C=C/C(=O)c2c(OC)cccc2OC)c(OC)c1 [Example 1, 2,2′,4,6,6′-pentamethoxychalcone], the “G2/M inhibition in %” value [1] is reported as 84%, the “G2/M cycle blocking” value [1] is reported as “significant G2/M cycle blocking” and the IC50 [2] is reported as 0.8 µM. For the same molecule, the IC50 [3] was 0.45 µM, the IC50 [4] was 7 µM and the IC50 [5] was 2.2 µM. The IC50 [6] was 50 µM, the IC50 [7] was 1 µM and the IC50 [8] was 30 µM. The IC50 [9] was 1.3 µM, the IC50 [10] was 0.65 µM and the IC50 [11] was 60 µM. It also gave an IC50 [12] of 0.25 µM.

For COc1cc(OC)c(/C=C/C(=O)c2c(OC)cc(OC)cc2OC)c(OC)c1 [Example 2, 2,2′,4,4′,6,6′-hexamethoxychalcone], the melting point was 150 °C, the “G2/M inhibition in %” value [1] was 86% and the “G2/M cycle blocking” value [1] was “significant G2/M cycle blocking”. It also gave an IC50 [2] of 0.9 µM, an IC50 [3] of 1 µM and an IC50 [4] of 8.5 µM. It also gave an IC50 [5] of 4 µM, an IC50 [6] of 50 µM and an IC50 [7] of 2.2 µM. It also gave an IC50 [8] of 30 µM, an IC50 [9] of 10 µM and an IC50 [10] of 1.9 µM. For the same molecule, the IC50 [11] was 52 µM and the IC50 [12] was 0.8 µM.

In the case of COc1ccc(C(=O)/C=C/c2c(OC)cc(OC)cc2OC)c(OC)c1 [Example 3, 2,2′,4,4′,6-pentamethoxychalcone], the melting point is reported as 162 °C and the “G2/M inhibition in %” value [1] is reported as 86%.

CCOc1cccc(OCC)c1C(=O)/C=C/c1c(OC)cc(OC)cc1OC [Example 7, 2′,6′-diethoxy-2,4,6-trimethoxychalcone] showed a melting point of 102 °C.

Work on CCOc1cc(OCC)c(/C=C/C(=O)c2c(OC)cccc2OC)c(OCC)c1 [Example 8, 2′,6′-dimethoxy-2,4,6-triethoxychalcone] yielded a melting point of 154 °C.

COc1cc(OC)c(/C=C/C(=O)c2c(OC)cc(N)cc2OC)c(OC)c1 [Example 9, 4′-amino-2,2′,4,6,6′-pentamethoxychalcone] gave a melting point of 188 °C.

With CCOc1cc(OCC)c(/C=C/C(=O)c2c(OCC)cc(OCC)cc2OCC)c(OCC)c1 [Example 10, 2,2′,4,4′,6,6′-hexaethoxychalcone] the melting point was 160 °C.

For COc1ccc(/C=C/C(=O)c2c(OC)cccc2OC)c(OC)c1OC [Example 11, 2,2′,3,4,6′-pentamethoxychalcone], the melting point was 129 °C.

Molecule COc1cc(OC)c(OC)cc1/C=C/C(=O)c1c(OC)cccc1OC [Example 12, 2,2′,4,5,6′-pentamethoxychalcone] has a melting point of 143 °C.

COc1cc(/C=C/C(=O)c2c(OC)cccc2OC)cc(OC)c1OC [Example 13, 2′,3,4,5,6′-pentamethoxychalcone] gave a melting point of 136 °C.

Work on COc1cccc(OC)c1C(=O)/C=C/c1c(OC)c(F)c(OC)c(F)c1OC [Example 14, 3,5-difluoro-2,2′,4,6,6′-pentamethoxychalcone] yielded a melting point of 108 °C.

COc1cccc(OC)c1C(=O)/C=C/c1c(C)cc(C)cc1C [Example 15, 2′,6′-dimethoxy-2,4,6-trimethylchalcone] gave a melting point of 126 °C.

With COc1ccc(/C=C/C(=O)c2c(OC)cc(OC)cc2OC)c(OC)c1 [Example 16, 2,2′,4,4′,6′-pentamethoxychalcone] the melting point was 105 °C.

COc1cc(OC)c(C(=O)/C=C/c2c(OC)cccc2OC)c(OC)c1 [Example 18, 2,2′,4′,6,6′-pentamethoxychalcone] showed a melting point of 164 °C.

For COc1ccc(C(=O)/C=C/c2cc(OC)c(OC)cc2OC)c(O)c1 [Example 19, 2′-hydroxy-2,4,4′,5-tetramethoxychalcone], the melting point was 170 °C.

Molecule COc1ccc(C(=O)/C=C/c2c(OC)cc(OC)cc2OC)c(O)c1 [Example 20, 2′-hydroxy-2,4,4′,6-tetramethoxychalcone] has a melting point of 167 °C.

COc1ccc(C(=O)/C=C/c2cc(OC)c(OC)c(OC)c2)c(O)c1 [Example 21, 2′-hydroxy-3,4,4′,5-tetramethoxychalcone] showed a melting point of 110 °C.

COc1ccc(C(=O)/C=C/c2ccc(OC)c(OC)c2OC)c(O)c1 [Example 22, 2′-hydroxy-2,3,4,4′-tetramethoxychalcone] gave a melting point of 152 °C.
